Data reported in patent publication US11919860B1 (priority 2023, dated 2024).

How the values were obtained:
[1] = test system: MDR strain of Mycobacterium tuberculosis; assay: Anti-tubercular activity, colorimetric Resazurin Microplate Assay (REMA); assay type: cell-based; conditions: 192 h, read-out: Anti-tubercular activity against Mycobacterium tuberculosis MDR (MIC)
[2] = test system: XDR strain of Mycobacterium tuberculosis; assay: as above; assay type: cell-based; conditions: 192 h, read-out: Anti-tubercular activity against Mycobacterium tuberculosis XDR (MIC)

Structure (SMILES): CC(C)OC(=O)c1cc[n+](CC(=O)c2ccccc2)cc1.[Br-] [Compound 4a, 4-(Isopropoxycarbonyl)-1-(2-oxo-2-phenylethyl)pyridin-1-ium Bromide]
- MIC [1]: 2 µg/mL
- MIC [2]: 2 µg/mL

Structure (SMILES): CC(C)OC(=O)c1cc[n+](CC(=O)c2ccc(F)cc2)cc1.[Br-] [Compound 4b, 1-(2-(4-Fluorophenyl)-2-oxoethyl)-4-(isopropoxycarbonyl)pyridin-1-ium bromide]
- MIC [1]: 1 µg/mL
- MIC [2]: 16 µg/mL
